# Experimental data: patent US20250263388A1, “NOVEL COMPOUND BASED ON VALEROLACTONE AND MEDICINE” (priority 2018, published 2025)
# Columns and labels:
# ALS = conditions: cited from earlier work; for efficacy in clinical trials: ALS therapeutic drug candidates
# [1] = system: SOD1-G93A-introduced N2a cells; assay: Dual-luciferase assay (SOD1-G93A gene introduced into N2a cells); conditions: positive control resveratrol
# NSC-34 cells = assay: ROS assay; assay type: cell-based, mouse
# Description: The ROS assay is a test in which the test substances are evaluated for their ability to eliminate the ROS produced by a cell under stress. The ROS assay was performed by culturing NSC-34 cells in a medium from which serum (FBS) had been removed, and measuring the increased ROS produced at that time using CM-H2DCFDA.
# NSC-34 cells were suspended in phenol red free DMEM medium, and NSC-34 cells were seeded at a target concentration of 4×10^4 cells/well in a 96-well plate at 200 μL/well.
# Then, the medium was completely removed from the 96-well plate, DMEM ([-] phenol red) was added at 200 μL/well, and then the test substance dissolved in DMSO (or solvent only) was added at 0.4 μL/well. […] And placed in the incubator for 1 hour. One hour later, the fluorescence intensity (excitation wavelength 485 nm, fluorescence wavelength 520 nm) was measured using a fluorescence microplate reader.
# The test was performed 2 to 4 times in quadruplicate. As a positive control, 30 μg/mL (120 μM) trolox was used. From the measurement result obtained with the test substance, the relative intensity to trolox was calculated by the following formula (1).
# [2] = system: ALS model mice holding SOD1-G93A gene; assay: Motor performance (Rota-rod test) in ALS model mice; assay type: in vivo, mouse
# Description: (§1) ALS model mice holding SOD1-G93A gene were used for the experiment. The first generation mouse was generated by bleeding a 6-week-old SOD1-G93A transgenic male (B6SJL-Tg (SOD1-G93A) 1Gur/J, imported from The Jackson Laboratory, USA) with 8-week-old C57BL/6J female mice (designated as F1 as shown below), and placed in the same cage for 1 week for mating.
# Backcrossing was performed using the first backcross SOD1-G93A gene-bearing male mouse (FuBk1) and C57BL/6J female mouse (F1) produced as described above, and the resulting mouse carrying the SOD1-G93A gene was backcrossed with C57BL/6J female mice, which was the second mouse (FuBk2) They were used in the preliminary test described below. […]
# (§2) The test substance was evaluated based on two points: the survival days of mice and motor function. Regarding the number of days of survival, the number of days until the mouse was determined to be dead (including surrogate death) was evaluated. Motor function was evaluated by a motor test using the Rota-rod method.
# In order to investigate the onset time of ALS-like symptoms in the test subject mouse, the motor function of the mouse was measured once a week by the Rota-rod method using a ROTA-ROD TREADMILL for MICE MK-600 (Muromachi). […] Those who fell twice in 300 seconds or less were regarded as mice showing the symptoms of motor inability, and the latency (seconds) until they fell was also measured. […]
# [3] = system: differentiated NSC-34 cells; assay: ODAP-EA assay (reducing effect on motor excitotoxicity); assay type: cell-based, mouse
# Excerpt: ODAP-EA assay was invented by the present inventor as a test for measuring the reducing effect on motor exciotoxicity (Kusama-Eguchi K, et. al. Food Chem Toxicol., 49, 636-643 (2011)). In the ODAP-EA assay, differentiated NSC-34 cells were subjected to excitotoxicity in NSC-34 cells by adding ethacrynic acid (EA), which has a mitochondrial glutathione level-lowering effect, and L-β-ODAP, which is a neurotoxic amino acid. Then, the effect of reducing the excitotoxicity of the test substance is evaluated.
# NSC34 cells were cultivated in a Rich medium in a […] until they became confluent, and then the Rich medium in the dish was removed. […] The replacement of the Poor medium once a day was repeated about 3 to 5 times to promote the differentiation of NSC-34 cells.
# The NSC-34 cells differentiated as described above were suspended in Poor medium and seeded in a 96-well plate at a target concentration of 4×10^4 cells/well at 200 μL/well. […]
# Then, 110 μL of the medium in the well plate was removed, 10 μL/well of AlamarBlue™ previously returned to room temperature was added, and the plate was placed in an incubator at 37° C. under 5% CO2 condition. After about 1 hour, the fluorescence intensity (excitation wavelength: 544 nm, fluorescence wavelength: 590 nm) was measured using a fluorescence plate reader. […]
# [4] = system: ALS model mice holding SOD1-G93A gene; assay: Survival days (Kaplan-Meier) in ALS model mice; assay type: in vivo, mouse
# Description: as §1
# (§3) Backcrossing was performed using the first backcross SOD1-G93A gene-bearing male mouse (FuBk1) and C57BL/6J female mouse (F1) produced as described above, and the resulting mouse carrying the SOD1-G93A gene was backcrossed with C57BL/6J female mice, which was the second mouse (FuBk2) They were used in the preliminary test described below. A male mouse (FuBk2) carrying the SOD1-G93A gene was further crossed with an F1 female mouse to prepare a third backcrossed mouse (FuBk3) and a fourth backcrossed mouse (FuBk4), which will be described later as the final examination.
# as §2
# A mouse that lost its righting reflex and could not return to the correct posture within 20 seconds was determined to be a surrogate death.
# The test results were analyzed by the Kaplan-Meier method, and the p-value and median were obtained by the Log-Rank test or the Wilcoxon test. The latency between control and YY-1 group after developing of the motor inability was analyzed by T-test for each measuring point.
# Of the third backcrossed mouse (FuBk3) carrying the SOD1-G93A gene, a total of 51 male and female mice determined to carry the SOD1-G93A gene by genotyping, and were used as test animals.
# The test drug was prepared at a concentration shown in Table 14 using a 1% DMSO+2% Tween 20 solution as a solvent. The test substance was orally administered to mice using a sterilized disposable sonde. According to Table 13 above, the test substance in an amount corresponding to the body weight was […] administered to the mouse.
# A total of 52 determined female mice were used as test animals.
# The test substance was administered to the mouse once a day from 105 days after birth using a sterilized disposable oral probe at 0.1 mL/10 g (body weight) (10 mg/kg).
# [5] = system: ALS model mice holding SOD1-G93A gene; assay: Change in the body weight of ALS model mice, administration test 1; assay type: in vivo; conditions: 1 mg/kg and 10 mg/kg, oral once a day from 60 days after birth
# Description: as §1, §3
# Subject animal: The second backcrossed mice (FuBk2) holding SOD1-G93A were determined by genotyping, and were used for the treatment experiment from 60 days after birth (pre-symptomatic period). A total of 16 animals were used as test animals (n=16).
# The test substance dissolved in DMSO was prepared at a concentration shown in Table 12 using a 2.5% DMSO (final concentration) solution as a solvent. […]
# The body weight was measured twice a week. […]
# [6] = 5 mg/kg oral once a day from about 45 days after birth, FuBk3 mice, tendency, p=0.090
# [7] = 10 mg/kg oral once a day from 105 days after birth, FuBk4 mice, p=0.029
compound,measurement,setting,value
CC(=O)N[C@@H](CS)C(=O)O [N-acetylcysteine],efficacy in clinical trials,ALS,no efficacy
"C/C=C/C=C/[C@H]1OC(=O)CC[C@@H]1O [YY-1, (5S,6R)-5-hydroxy-6-[(1E,3E)-penta-1,3-dien-1-yl] tetrahydro-2H-pyran-2-one]",luminescence intensity in excess of the positive control,[1]; 0.1 μg/mL (0.55 μM),about 40%
same,luminescence intensity in excess of the positive control,[1]; 1 μg/mL (5.5 μM),about 40%
same,ROS scavenging action relative to trolox,"NSC-34 cells; relative to 30 μg/mL (120 μM) trolox, serum-free medium, test substance 10, 30 or 100 μg/mL",about 20%
same,ROS assay activity relative to 322-Ext at the same concentration,NSC-34 cells; same concentration as 322-Ext,about 40%
same,"prolongation of development of motor disability vs control, median","[2]; 5 mg/kg oral once a day from about 45 days after birth, FuBk3 mice, tendency, p=0.12",7 days
same,delay effect in motor dysfunction,"[2]; 10 mg/kg oral once a day from 105 days after birth, FuBk4 mice",about 7 days
same,relative strength with respect to 4 mM NAC (highest),[3]; 0.1 to 3.0 μg/mL (0.55 to 16.5 μM),≤ 20%
same,ODAP-EA toxicity-reducing effect,[3]; all concentrations of 0.1 to 100 μg/mL (0.55 to 550 μM),strong ODAP-EA toxicity-reducing effect
same,"extension of survival days vs control, average value",[4]; [6],about 5 days
same,"extension of survival days vs control, median value",[4]; [6],8 days
same,"prolongation of survival days vs control, mean value",[4]; [7],about 6 days
same,"prolongation of survival days vs control, median value",[4]; [7],5 days
same,toxicity to the ALS model mouse (presumed from body weight),[5],no or low toxicity
same,body weight change,[5]; FuBk2 male mice,no significant weight loss
COC1=C(OC)C(=O)C(C/C=C(\C)CC/C=C(\C)CC/C=C(\C)CC/C=C(\C)CC/C=C(\C)CC/C=C(\C)CC/C=C(\C)CC/C=C(\C)CC/C=C(\C)CCC=C(C)C)=C(C)C1=O [coenzyme Q10],efficacy in clinical trials,ALS,no efficacy
N[C@@H](CCC(=O)N[C@@H](CS)C(=O)NCC(=O)O)C(=O)O [glutathione],efficacy in clinical trials,ALS,no efficacy
C/C1=C2/[N-][C@H]([C@H](CC(N)=O)[C@@]2(C)CCC(=O)NC[C@@H](C)OP(=O)([O-])O[C@H]2[C@@H](O)[C@@H](n3cnc4cc(C)c(C)cc43)O[C@@H]2CO)[C@]2(C)N=C(/C(C)=C3N=C(/C=C4N=C1[C@@H](CCC(N)=O)C\4(C)C)[C@@H](CCC(N)=O)[C@]\3(C)CC(N)=O)[C@@H](CCC(N)=O)[C@]2(C)CC(N)=O.[CH3-].[Co+3] [methylcobalamin],efficacy in clinical trials,ALS,no efficacy
"IGF-1: Insulin-like growth factor-1, protein expected to have an action of preventing motor nerve loss",outcome of clinical trials (Phase 3),ALS; Non-Patent Document 5,unsuccessful
